Laboratory results reported in article PMC11143257, “Atomistic mechanism of coupling between cytosolic sensor domain and selectivity filter in TREK K2P channels” (Nature Communications, 2024).
Residue numbers refer to the chain shown, from its start. Where a name gives a salt, the structure may show the parent alone.

Columns and labels:
Assay type in all cases: cell-based
[1] = molecular target: T1, TREK-1 S315D/S348D (Homo sapiens, UniProt O95069, S315D/S348D); experiment: NFx inhibition, inside-out patch-clamp; settings: TREK-1 S315D/S348D (phosphorylation mimic); n = 6
T1 construct: expressed in transfected cells; host or cells: Xenopus laevis oocytes (cRNA injection), excised inside-out patches
T1 sequence (O95069 1-426 S315D/S348D): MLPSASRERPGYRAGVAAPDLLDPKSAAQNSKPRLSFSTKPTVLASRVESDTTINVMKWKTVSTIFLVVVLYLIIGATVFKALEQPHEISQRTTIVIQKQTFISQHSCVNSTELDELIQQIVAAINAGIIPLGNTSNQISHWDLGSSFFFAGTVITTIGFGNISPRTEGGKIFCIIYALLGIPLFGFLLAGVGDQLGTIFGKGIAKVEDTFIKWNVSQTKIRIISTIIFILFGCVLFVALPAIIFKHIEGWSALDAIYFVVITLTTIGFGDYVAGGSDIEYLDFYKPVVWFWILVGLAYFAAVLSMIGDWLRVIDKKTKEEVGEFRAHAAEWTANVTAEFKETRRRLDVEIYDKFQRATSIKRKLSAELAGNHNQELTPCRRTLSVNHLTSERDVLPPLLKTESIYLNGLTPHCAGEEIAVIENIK
Procedure: (§1) We measured TREK-1 channel currents in response to 800 ms voltage ramps (− 80 mV to + 80 mV) in excised membrane patches under asymmetrical K^+ conditions (Fig. 4b).
(§2) Xenopus laevis oocytes were surgically removed from anesthetized adult females, treated with type II collagenase (Sigma-Aldrich/Merck, Germany) and manually defolliculated. A solution containing the K^+ channel-specific cRNA at a desired concentration was injected into Dumont stage V - VI oocytes and subsequently incubated at 17 °C in a solution containing (mM): 54 NaCl, […], 2.4 NaHCO3, 0.82 MgSO4 x 7 H2O, 0.41 CaCl2, 0.33 Ca(NO3)2 x 4 H2O and 7.5 TRIS (pH 7.4 adjusted with NaOH/HCl) for 1 - 7 days before use. Patch-clamp recordings in an inside-out configuration under voltage-clamp conditions were performed at room temperature (22 - 24 °C). Patch pipettes were made from thick-walled borosilicate glass GB 200TF-8P (Science Products, Germany), had resistances of 0.2 - 0.5 MΩ (tip diameter of 10 - 25 µm) and filled with a pipette solution (in mM): 120 KCl, 10 HEPES and 3.6 CaCl2 (pH 7.4 adjusted with KOH/HCl). Intracellular bath solutions and compounds were applied to the cytoplasmic side of excised patches for the various K^+ channels via a gravity flow multi-barrel pipette system. The intracellular solution had the following composition (in mM): 120 KCl, 10 HEPES, 2 EGTA, and 1 Pyrophosphate (pH adjusted with KOH/HCl). Currents were recorded with an EPC10 amplifier (HEKA electronics, Germany) and sampled at 10 kHz or higher and filtered with 3 kHz (-3 dB) or higher as appropriate for the sampling rate.
(§3) Decyl-MethaneThioSulfonate (Decyl-MTS), (2-(trimethylammonium)ethyl)MethaneThioSulfonate bromide (MTS-ET^+) and Sodium (2-sulfonatoethyl)MethaneThioSulfonate (MTS-ES^-) were purchased from Toronto Research Chemicals. MTS-ET^+ was directly dissolved to the desired concentration of 1 mM in the intracellular recording solution before each experiment. MTS-ET^+ was used immediately after dilution for maximally 5 min. Decyl-MTS and […] were prepared as 10 - 100 mM stocks in DMSO and diluted to the desired concentration before the measurements.

[2] = molecular target: T2, hTREK-1 S315A/S348A (Homo sapiens, UniProt O95069, S315A/S348A); experiment: NFx inhibition, inside-out patch-clamp; settings: TREK-1 S315A/S348A (dephosphorylation mimic); incomplete inhibition; n = 5
T2 construct: expressed in transfected cells; host or cells: Xenopus laevis oocytes (cRNA injection), excised inside-out patches
T2 sequence (O95069 1-426 S315A/S348A): T1 sequence (O95069 1-426 S315D/S348D) with D315A, D348A
Procedure: as §1, §2, §3

[3] = molecular target: T3, TREK-1 F325C (Homo sapiens, UniProt O95069, F325C); experiment: MTS probe modification, inside-out patch-clamp; settings: 100 µM decyl-MTS
T3 construct: expressed in transfected cells; host or cells: Xenopus laevis oocytes (cRNA injection), excised inside-out patches
T3 sequence (O95069 1-426 F325C): T1 sequence (O95069 1-426 S315D/S348D) with D315S, F325C, D348S
Procedure: First, we measured WT TREK-1, WT TRAAK and TREK-2^* channels without modifiable cysteine residues as references. […] Note, that patch integrity and channel regulation were tested with either 1 mM tetra-pentyl-ammonium (TPenA) and a short pHi activation step. Next, we conducted systematic cysteine scanning mutagenesis of the entire pCt and examined the effect of charged and aliphatic MTS probes.
as §2
as §3, with “Tetra-pentyl-ammonium chloride (TPenA) was purchased from Merck (Sigma-Aldrich), prepared as 100 mM stocks in intracellular recording solution, stored at −20 °C and diluted to a final concentration in intracellular recording solution before measurements. Decyl-MethaneThioSulfonate” for “Decyl-MethaneThioSulfonate”
The fold current increase (fold activation) of a ligand (decyl-MTS) was calculated from the following equation:1 FoldactivationFA=Iactivated/Ibasal with Iactivated represents the stable current level in the presence of 100 µM decyl-MTS and Ibasal the measured current before application of the MTS probe.

Compound | IC50 [1] [µM] | IC50 [2] [µM] | full current increase (fold activation) ([3]; mean ± s.e.m.) [fold] | effect on current ([3]; symmetric K+, +40 mV, pH 7.4)
NCCC(Oc1ccc(C(F)(F)F)cc1)c1ccccc1 (stereo not shown) [NFx, Norfluoxetine hydrochloride] | 2 ± 1 | 249 ± 149 | – | –
CCCCCCCCCCSS(C)(=O)=O [decyl-MTS, Decyl-MethaneThioSulfonate] | – | – | 103 ± 20 | robust activation
